According to patent US20100316626A1, “METHODS FOR TREATMENT AND DIAGNOSIS OF PSYCHIATRIC DISORDERS” (THE GOVERNMENT OF THE UNITED STATES OF AMERICA AS …, priority 2006, published 2010):

Tests used:
[1] = system: A431, SK-BR-3 and MDA-MB-453 cells; details: cited from earlier work
[2] = system: PDGF receptor; details: at μM concentrations; cited from earlier work
[3] = system: ErbB receptors; details: cited from earlier work
[4] = biological target: ErbB receptors; details: A431, SK-BR-3 and MDA-MB-453 cells; read-out: IC50 for block of ErbB phosphorylation; cited from earlier work
[5] = system: LTP at Schaffer collateral-CA1 synapses; assay: LTP and LTP depotentiation at Schaffer collateral-CA1 synapses in acute hippocampal slices; format: cell-based, mouse; details: for block of the effects of NRG-1β on LTP by ErbB RTK inhibitors: inhibitor 10 μM applied 10 min prior to NRG-1, FIG. 3D
Experimental: (§1) Acute mouse hippocampal slice preparation: Hippocampal slices from 4 to 5 week old C57BL/6 mice were prepared in ice-cold artificial cerebrospinal fluid (ACSF) and cut on a 1000PLUS Vibratome (VIBRATOME, St. Louis, USA) to a thickness of ˜300 μm.
Electrophysiological recordings in mouse hippocampal slices: A single slice was transferred to a submerged recording chamber continuously perfused at a flow rate of 2 mL/min (30° C.) with recording ACSF (same as cutting ACSF minus the ascorbate, myo-inositol and pyruvate). Recordings were performed in 10 μM bicuculline (Tocris, USA) to block inhibitory activity. […] A borosilicate two-barrel stimulation electrode (World Precision Instruments, Sarasota, Fla.) with a silver wire (A-M Systems, Carlsberg, Wash.) was filled with oxygenated ACSF recording solution and placed in the stratum radiatum to stimulate the Schaffer collateral/commissural fibers at 0.05 Hz (0.1 msec, 20-40 μA) via a stimulus isolator (A365, World Precision Instruments, Sarasota, Fla.). Data were collected with a Multiclamp 700A amplifier (Axon Instrument, Foster city, CA). The recordings were digitized at a sampling rate of 10 kHz and filtered at 3 kHz. Baseline fEPSP slopes were set to 40-50% of maximum response. Baseline recordings of at least 10 min were obtained once stable basal transmission was observed. LTP was induced using a theta burst stimulation (TBS) protocol that consisted of 5 trains delivered at 0.2 Hz. […] To measure the AMPAR or the NMDAR components of evoked EPSCs, voltage-clamp recordings from CA1 pyramidal neurons were performed at holding potentials of −70 mV to measure the AMPAR component (10 EPSCs during 1 min) or at +40 mV to measure the NMDAR component. The AMPAR or NMDAR mediated EPSCs were measured 5 min prior to delivering the TBS, at approximately 20 min after inducing LTP (when the response stabilized), and at 10 and 40 min after commencing NRG-1β1 perfusion. In other experiments NMDAR EPSCs were recorded in potentiated slices prior to and after NRG-1 treatment at +40 mV (plus […] CNQX) to inhibit residual AMPAR currents. Paired-pulse facilitation was analyzed in whole-cell current-clamp recordings with inter-pulse intervals set to 50, 100, 150 and 200 msec.
Peptides corresponding to the splice variants of the EGF-like domains of NRG-1β1 and NRG-1α2 were dissolved in recording ACSF solution to a final concentration 0.1 or 1 nM. NRG was delivered for 10 min in external recording ACSF solution 20, 30 or 50 min following TBS. The ErbB receptor inhibitors PD158780 (10 μM) and PD168393 (10 μM) were diluted in ACSF solution and applied to the slices 10 min prior to NRG-1 addition to ensure diffusion into the cell and efficient receptor inhibition. […] Data were analyzed for significance using the Student's t-test. […]

[6] = system: FGF receptor; details: at μM concentrations; cited from earlier work
[7] = system: surface seGFP-GluR1 AMPA receptors; assay: Live imaging of surface seGFP-GluR1 in transfected dissociated hippocampal neurons; format: cell-based, rat; details: PD158780 5 min before and during NRG-1; FIG. 6A
Experimental: Dissociated hippocampal cultures and chemLTP induction: Hippocampal neuronal cultures from E19 rat pups were prepared as reported previously. C. S. Herrmann et al., Clin Neurophysiol 116: 2719, 2005; A. Fisahn, et al., Nature 394: 186, 1998. Neurons were plated on 12 mm glass coverslips in 24 well plates at a density of 50,000 cells/well. ChemLTP was induced in cultures essential as described previously with minor modifications (Liao et al., 2001; Lu et al., 2001). Briefly, cells grown for 5 days in vitro (DIV5) were switched to medium containing 200 μM APV and maintained in Neurobasal media supplemented with B-27 (Invitrogen) until DIV18 to DIV22. […]
Live imaging in transfected hippocampal neurons of surface seGFP-tagged GluR1 AMPARs. […] Cells were perfused with […] glycine-containing medium used to induce chemLTP prior to capturing images and recorded for 4 min. […] Immediately after quenching with acidic MES buffer, cultures were switched back to 200 μM glycine in HBBSS (pH 7.4) for 2 min to recover the fluorescence. […] Images were detected with a cooled CCD camera (10 mW output, 12 bits, 1344×1024 pixels, Hamamatsu Orca ER) using 400 msec of exposure and 2×2 binning. Fluorescence was determined in 20-μm segments of neuronal processes that were at least 10 μm removed from the neuronal soma. […] Significance was evaluated by 1-way-ANOVA.

[8] = system: basal synaptic transmission in hippocampal slices; assay: Basal synaptic transmission in acute hippocampal slices (field recordings); format: cell-based, mouse; details: D2-selective inhibitors perfused in hippocampal slices; FIG. 11A
Experimental: as §1
Electrophysiological recordings in mouse hippocampal slices: A single slice was transferred to a submerged recording chamber continuously perfused at a flow rate of 2 mL/min (30° C.) with recording ACSF (same as cutting ACSF minus the ascorbate, myo-inositol and pyruvate). Recordings were performed in 10 μM bicuculline (Tocris, USA) to block inhibitory activity. […] The AMPAR or NMDAR mediated EPSCs were measured 5 min prior to delivering the TBS, at approximately 20 min after inducing LTP (when the response stabilized), and at 10 and 40 min after commencing NRG-1β1 perfusion. In other experiments NMDAR EPSCs were recorded in potentiated slices prior to and after NRG-1 treatment at +40 mV (plus […] CNQX) to inhibit residual AMPAR currents. Paired-pulse facilitation was analyzed in whole-cell current-clamp recordings with inter-pulse intervals set to 50, 100, 150 and 200 msec.
Peptides corresponding to the splice variants of the EGF-like domains of NRG-1β1 and NRG-1α2 were dissolved in recording ACSF solution to a final concentration 0.1 or 1 nM. […] Data were analyzed for significance using the Student's t-test. […]

SMILES | concentration that blocks proliferation [1] [µM] | cross-reactivity with PDGF receptor [2] | dissociation rate and autophosphorylation inhibition of the receptors [3] | Kd ([3]; reconstituted receptors in vitro, read-out: affinities (binds competitively with ATP in the pocket)) [nM] | IC50 [4] [nM] | block of the effects of NRG-1β on LTP by ErbB RTK inhibitors [5] | effect on LTP depotentiation elicited by TPS ([5]; two-pathway approach, FIG. 4C,D) | cross-reactivity with FGF receptor [6] | block of NRG-1-induced internalization of seGFP-GluR1 [7] | effect on NRG-1-evoked LTP depotentiation ([5]; 50 nM, FIG. 11C) | effect on basal synaptic transmission [8]
CNc1cc2c(Nc3cccc(Br)c3)ncnc2cn1 [PD158780, 4-[(3-Bromophenyl)amino]-6-(methylamino)-pyrido[3,4-d]pyridimine] | 0.1 to 1 | no cross-reactivity | extremely slow (several hours) | 0.1 to 1 | 15 to 50 | completely blocked | block LTP depotentiation | no cross-reactivity | completely blocked | – | –
C=CC(=O)Nc1ccc2ncnc(Nc3cccc(Br)c3)c2c1 [PD168393, 4-[3(Bromophenyl)amino]-6-acrylamidoquinazoline] | – | – | – | – | – | completely blocked | – | – | – | – | –
Clc1ccc(N2CCN(Cc3c[nH]c4ncccc34)CC2)cc1 [L745870] | – | – | – | – | – | – | – | – | – | prevent NRG-1-evoked LTP depotentiation | no effect
